In ChEMBL document CHEMBL3507680, “University of Dundee, Gates Library screen for HepG2 cell viability” one finds cytotoxicity data, which are given here for 100 compounds.

The nature of the data set: Human HepG2 cell viability assay in 384 well format. As to conditions: HepG2 cells, read-out: Inhibition. Also on record: dose 125 nL, time 70.5 hour; cytotoxicity at 70.5 h: concentration not given beside the values. It counts as toxicity, cell-based.
As for `O=C(NCc1ccncc1)N1CCSCC1CCO` (stereo not given), the cytotoxicity at 70.5 h amounted to 10.5%.

Consider `Cc1nn(C)c2c(=O)n(Cc3ccc(Cl)cc3)nnc12`, for which the cytotoxicity at 70.5 h is -9.56%.

In the case of `Cc1nnsc1C(=O)NCc1nn(C)c2c1COCC2`, the cytotoxicity at 70.5 h was -13.8%.

In the case of `Cc1nc(C)n(CC2CCCN2c2ncnc3c2CCC3)n1` (stereo not given), the cytotoxicity at 70.5 h was found to be 15.2%.

As for `O=C(NC[C@H]1OC[C@@H](NCc2ccc(F)cc2)[C@@H]1O)c1ccncc1`, the cytotoxicity at 70.5 h was 0.548%.

For the compound `CCS(=O)(=O)N1Cc2ncn(C)c2C(COCC2CCOCC2)C1` (stereo not given), the cytotoxicity at 70.5 h was -3.96%.

Consider `CC(C)c1cc(CN2CCC(N)CC2)on1`, for which the cytotoxicity at 70.5 h was 19.4%.

`Cc1cc(C(=O)N2CCc3nc4sc(C)cc4c(=O)n3CC2)on1`: the cytotoxicity at 70.5 h was -2.99%.

For the compound `COCC1c2nnn(C)c2CCN1C(=O)COc1ccccc1C` (stereo not given), the cytotoxicity at 70.5 h was -4.54%.

Turning to `O=C(Cn1ccc2ccccc21)NC[C@@H]1CCCN2CCCC[C@H]12`, the cytotoxicity at 70.5 h was -10.1%.

As for `O=C(CCc1nc(Cl)n[nH]1)N1C[C@@H](CN2CCCCCC2)[C@@H](CO)C1`, the cytotoxicity at 70.5 h was -4.12%.

On to `CCC(NC(=O)Cn1ccc(=O)n(C)c1=O)c1ccc(OC)cc1` (stereo not given), for which the cytotoxicity at 70.5 h was -9.09%.

As to `COC(=O)c1cccc(S(=O)(=O)NCc2cccnc2N(C)C)c1`, the cytotoxicity at 70.5 h is -2.85%.

For the compound `CC(=O)N1CCCN(c2nccc(-c3cn(C)nc3C)n2)CC1`, the cytotoxicity at 70.5 h was -2.77%.

On to `Cc1cnn(CC2CCCN2C(=O)c2nccnc2N)c1` (stereo not given), for which the cytotoxicity at 70.5 h is -6.62%.

In the case of `Cc1cc(C(=O)NC2CCN(c3ncccc3C#N)CC2)no1`, the cytotoxicity at 70.5 h is -2.85%.

Take `Cn1ccnc1-c1ccc(NCC2COCCO2)nn1` (stereo not given): the cytotoxicity at 70.5 h is -5.53%.

With `CCc1noc(-c2cccc(NC(=O)C(C)(C)C)c2)n1`, the cytotoxicity at 70.5 h was -11.2%.

For `CC(C)NC(=O)CCCn1cnc2ccccc2c1=O`, the cytotoxicity at 70.5 h amounted to 16.8%.

For the compound `Cc1ccnc(NC(=O)CCc2cnn(C)c2C)c1`, the cytotoxicity at 70.5 h is -4.47%.

In the case of `Cc1ccc(C(=O)NCCNC(=O)c2cncnc2C(C)C)cc1F`, the cytotoxicity at 70.5 h is -7.29%.

For the compound `COc1ccccc1C(NC(=O)CN(C)C(C)C)c1noc(C)n1` (stereo not given), the cytotoxicity at 70.5 h was -2.25%.

`COc1ccc(CN2CCCCC2c2n[nH]cc2-c2cc(C)no2)cc1` (stereo not given): the cytotoxicity at 70.5 h turned out to be 11%.

For the compound `COc1ccc(NC(=O)C2CC(=O)N(C)C2)cn1` (stereo not given), the cytotoxicity at 70.5 h is -5.38%.

On to `Cc1cc(Cc2ccc(F)cc2)cc(C2CCCNC2)n1` (stereo not given), for which the cytotoxicity at 70.5 h worked out at 16.9%.

Take `COCCNC(=O)C(C)S(=O)(=O)c1ccc(OC)cc1` (stereo not given): the cytotoxicity at 70.5 h stood at 6.85%.

Turning to `CC(C)(C)c1nnc(CN2CCN(C(=O)CC3CCCCC3)CC2)o1`, the cytotoxicity at 70.5 h was -2.8%.

For `Cc1ccc(NC2CCN(C(=O)c3cccc(F)c3F)CC2)nn1`, the cytotoxicity at 70.5 h was -13.7%.

With `Cc1cc(C)nc(C2CCN(C(=O)c3cnco3)C2)n1` (stereo not given), the cytotoxicity at 70.5 h is -6.7%.

Turning to `Cc1ccc(NC(=O)Cn2ncc(SCC(N)=O)c(Cl)c2=O)c(F)c1`, the cytotoxicity at 70.5 h was -17.2%.

For `CN(C)C(=O)[C@@H]1CCO[C@@H]2CCN(c3ncccn3)C[C@H]21`, the cytotoxicity at 70.5 h is -15.3%.

In the case of `Cc1cccc(S(=O)(=O)N2C[C@H]3C[C@H](C(=O)N(C)C)[C@@H](C2)O3)c1`, the cytotoxicity at 70.5 h was 1.15%.

As for `CN(Cc1cnn(-c2ccccc2)n1)C1CCCN(c2cccnn2)C1` (stereo not given), the cytotoxicity at 70.5 h was -12.2%.

With `COc1ccc(OC)c(CNc2nnc(C(C)(C)C)o2)c1`, the cytotoxicity at 70.5 h was -12.4%.

For `COc1cc2nc(NCCNS(C)(=O)=O)cc(C)c2cc1OC`, the cytotoxicity at 70.5 h was -0.473%.

For `CCCc1n[nH]c(C2CN(C(=O)Cc3ccc(C)nc3)CCO2)n1` (stereo not given), the cytotoxicity at 70.5 h is -1.25%.

Consider `O=C(Cc1csc(N2CCNC2=O)n1)NC1(c2ccccc2)CCC1`, for which the cytotoxicity at 70.5 h is -8.91%.

For the compound `COCc1nc(C(=O)N2CCN(Cc3cc(C)on3)CC2)cs1`, the cytotoxicity at 70.5 h was -5.75%.

In the case of `COc1c(CNCc2ccc(Cn3ccnc3)cc2)c(C)nn1C`, the cytotoxicity at 70.5 h is 0.712%.

Regarding `CN(Cc1ccccc1NCc1ncc[nH]1)C(=O)c1cccs1`, the cytotoxicity at 70.5 h is 14%.

Consider `Cc1ccc(NC2CCN(C(=O)CCCc3cccs3)CC2)nn1`, for which the cytotoxicity at 70.5 h is -2.88%.

For the compound `Nc1nc2c(c(NC3CCCC3)n1)CCN(C(=O)C1CCOC1)CC2` (stereo not given), the cytotoxicity at 70.5 h was 11.4%.

`CCOC(=O)CCC(=O)N1CCC(CSCc2ccco2)CC1`: the cytotoxicity at 70.5 h was -12%.

Regarding `CN1CCC(CNC(=O)c2cccc(NC(N)=O)c2)c2ccccc21` (stereo not given), the cytotoxicity at 70.5 h is -2.27%.

As to `O=C1CCCN1CC1CN(C(=O)CC2CCCC2)Cc2nccn2C1` (stereo not given), the cytotoxicity at 70.5 h was -8.43%.

`Cc1cnn(C2CN(CC(=O)NCCc3cccs3)C2)c1`: the cytotoxicity at 70.5 h is -12.3%.

Take `Cn1ccnc1C1CCN(S(=O)(=O)c2ccc3oc(=O)[nH]c3c2)CC1`: the cytotoxicity at 70.5 h is -9.3%.

On to `CCc1nc(NC(=O)NCCc2scnc2C)nn1C`, for which the cytotoxicity at 70.5 h came to 16.5%.

As to `Cc1cccc(C(=O)N2C[C@H]3CC[C@@H]2CN(S(=O)(=O)N(C)C)C3)n1`, the cytotoxicity at 70.5 h was -10.2%.

Take `Cc1nn(C)c(=O)c2nn(-c3ccc(F)cc3)c(C)c12`: the cytotoxicity at 70.5 h was -8.42%.

With `Cc1noc(C(C)N2CCN(Cc3nnc(C4CC4)o3)CC2)n1` (stereo not given), the cytotoxicity at 70.5 h was -3.98%.

Turning to `CC(C)N(CC(=O)Nc1cccc(C#N)c1)C1CC1`, the cytotoxicity at 70.5 h was -4.01%.

On to `CN(Cc1ccc(F)cc1)[C@@H]1CN(C(=O)c2cccs2)C[C@H]1O`, for which the cytotoxicity at 70.5 h is -17.9%.

Turning to `CN(CC(=O)Nc1nc2c(s1)CCCCCC2)C(=O)c1ccco1`, the cytotoxicity at 70.5 h is -17.3%.

As for `CC(CN1CCOCC1)OC(=O)c1cccc2cn[nH]c12` (stereo not given), the cytotoxicity at 70.5 h came to 12%.

With `Cc1ccsc1C(=O)N1CCCn2c(nc(CN(C)C)cc2=O)C1`, the cytotoxicity at 70.5 h was determined as 8.58%.

Take `CN(C)CCCn1ccnc1C1CCCN(c2cc(N)ncn2)C1` (stereo not given): the cytotoxicity at 70.5 h is -4.4%.

For the compound `Cc1nn(C)c2nc(N3CCCCC3c3ccc(F)cc3)sc12` (stereo not given), the cytotoxicity at 70.5 h was determined as 0.992%.

As for `Cc1cnn(CC2CCCN2C(=O)c2sccc2-n2cnnn2)c1` (stereo not given), the cytotoxicity at 70.5 h was -4.41%.

Regarding `Cc1nc(C)c(C(=O)NCCOc2ccc(C(F)(F)F)cn2)o1`, the cytotoxicity at 70.5 h is -3.32%.

Turning to `CCN1CCCC(c2c(-c3ccccc3)ncn2Cc2cccnc2)C1` (stereo not given), the cytotoxicity at 70.5 h is -9.92%.

For `COCCc1noc(CN2CCCC(Cn3cncn3)C2)n1` (stereo not given), the cytotoxicity at 70.5 h is -7.84%.

Turning to `CC(C)OCc1cccc(NC(=O)N(C)Cc2ncnn2C)c1`, the cytotoxicity at 70.5 h was -9.1%.

Consider `CC(NCCCN1CCCC1=O)c1cc(Br)ccc1O` (stereo not given), for which the cytotoxicity at 70.5 h was -5.37%.

Turning to `COC(=O)CC(NC(=O)c1ccc(OC)cc1OC)c1cccs1` (stereo not given), the cytotoxicity at 70.5 h is -11.2%.

As to `Cc1noc(C2CCN(C(=O)c3ccc(C(F)(F)F)nc3)CC2)n1`, the cytotoxicity at 70.5 h was -5.24%.

`CCOCCC(=O)N1CCCC(CO)(CC2CC2)C1` (stereo not given): the cytotoxicity at 70.5 h is -11%.

With `Cc1ccc2c(n1)N(CCN(C)C)CCN(C(=O)c1cccs1)C2`, the cytotoxicity at 70.5 h was -5.81%.

With `Cn1cc(CN2CCOCC3(CCN(C4CCOCC4)C3)C2)cn1` (stereo not given), the cytotoxicity at 70.5 h was 6.49%.

Regarding `Cc1noc(C)c1-c1ccc(C2CCCN2C(=O)Cn2ccnc2)nc1` (stereo not given), the cytotoxicity at 70.5 h stood at 15.1%.

For `COc1ccccc1Oc1ncccc1CNC(=O)[C@H](C)O`, the cytotoxicity at 70.5 h was -6.71%.

On to `CCCn1nnnc1COC(=O)C1COc2ccc(Cl)cc2C1` (stereo not given), for which the cytotoxicity at 70.5 h was -5.74%.

Consider `Cc1nc(O)cc(CCNc2nc(N(C)C)nc(C)c2C)n1`, for which the cytotoxicity at 70.5 h came to 22%.

Turning to `N#Cc1cn[nH]c1NCc1cc(Br)ccc1O`, the cytotoxicity at 70.5 h was -9.76%.

For the compound `CCCN1CCC(CNC(=O)C2(c3cccc(C)c3)CC2)C1` (stereo not given), the cytotoxicity at 70.5 h was 4.42%.

For `Cc1nc(N(C)CCCc2nccn2C)c2nc(C)oc2n1`, the cytotoxicity at 70.5 h is -11.8%.

For `COc1cc2nc(C)n(CC(=O)NCCCN(C)C)c(=O)c2cc1OC`, the cytotoxicity at 70.5 h is 6.18%.

As for `O=C(c1cnn[nH]1)N1CCCC1c1nc2cc(F)ccc2[nH]1` (stereo not given), the cytotoxicity at 70.5 h was -12.1%.

For the compound `N#Cc1cccc(OC23CCCN(CC2)C3)c1` (stereo not given), the cytotoxicity at 70.5 h worked out at 13.6%.

`CN(C)c1ncc(CNS(=O)(=O)c2cc(F)ccc2Cl)n1C`: the cytotoxicity at 70.5 h was -9.08%.

Consider `CCCN1CCC(N(Cc2ncc(C)o2)C(C)=O)C1` (stereo not given), for which the cytotoxicity at 70.5 h was -8%.

On to `CCN1CCCCC1C(=O)N1CCC(OC2CCCC2)CC1` (stereo not given), for which the cytotoxicity at 70.5 h came to 6.41%.

As for `Cc1cc(C(=O)N2C[C@@H]3OCCN(CCN4CCCC4)[C@@H]3C2)c(C)o1`, the cytotoxicity at 70.5 h is -7.77%.

In the case of `CCc1ocnc1C(=O)N1CCOC(CCCC(C)C)C1` (stereo not given), the cytotoxicity at 70.5 h was -12.3%.

As for `CCN(c1ccc(C(=O)Nc2c(C)nn(C(C)C)c2C)cc1)C(C)C`, the cytotoxicity at 70.5 h is -7.4%.

With `Cn1cnc2c1CCN(Cc1csc(Cc3ccccc3)n1)C2`, the cytotoxicity at 70.5 h is -9.86%.

With `Cc1noc2ncc(C(=O)NCC3CCCO3)cc12` (stereo not given), the cytotoxicity at 70.5 h was -7.11%.

`CCN1CCN(C(=O)c2ccc(OC)nn2)c2ccccc21`: the cytotoxicity at 70.5 h is -0.876%.

As to `Cc1nccc(N2CCN(C3CCOCC3)CC(C(=O)N(C)C)C2)n1` (stereo not given), the cytotoxicity at 70.5 h was -13.5%.

As to `COc1ccccc1CC1CCCN(C(=O)c2n[nH]c3c2CCC3)C1` (stereo not given), the cytotoxicity at 70.5 h was -3.07%.

For the compound `COc1cc(NC(=O)c2ccc(Cl)cc2F)c(C(=O)N(C)C)cc1OC`, the cytotoxicity at 70.5 h was -11.5%.

In the case of `Cc1noc([C@]23COC[C@H]2CN(C(=O)COC2CCCC2)C3)n1`, the cytotoxicity at 70.5 h is -5.12%.

As for `O=C(NC1CCN(C2CC2)CC1)NC1CCOc2ccc(Br)cc21` (stereo not given), the cytotoxicity at 70.5 h worked out at 5.74%.

Consider `Cn1c(CO)cnc1SC(C(=O)NC1CC1)c1ccccc1` (stereo not given), for which the cytotoxicity at 70.5 h is -8.64%.

Take `Cc1nn(C)c(Cl)c1C1CCCN1Cc1ccccn1` (stereo not given): the cytotoxicity at 70.5 h was -7.44%.

As to `CC(=O)Nc1nc(C(=O)NCc2ccnc(N3CCCC3)c2)cs1`, the cytotoxicity at 70.5 h was -6.6%.

`CCOc1cccc(C(C)NC(=O)N2CCC(C(N)=O)CC2)c1` (stereo not given): the cytotoxicity at 70.5 h is -8.18%.

In the case of `Cc1nn(C)cc1NC(=O)CN1CCN(C2CCCC2)C(=O)C1`, the cytotoxicity at 70.5 h is -6.18%.

Regarding `CCc1ccc(CN(CCN(C)C)Cc2ccc(C)s2)nc1`, the cytotoxicity at 70.5 h was -5.3%.

With `COc1ncccc1CN1Cc2nccn2CC(Cn2cccn2)C1` (stereo not given), the cytotoxicity at 70.5 h is -5.37%.
